Consider 1 compound from paper PMC6934184, “Selective DNA-PKcs inhibition extends the therapeutic index of localized radiotherapy and chemotherapy” (The Journal of Clinical Investigation, 2019).

Each structure is given as a SMILES string.

The target in the assay is T1, PRKG2 (PKG2) (Homo sapiens, UniProt Q13237).
T1 construct: purchased Thermo Fisher Scientific (Life Technologies) SelectScreen
Kind of assay: SelectScreen Z'LYTE. In kind it is biochemical. The method, boiled down:
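NU5455 was profiled across the SelectScreen Broad panel of kinase activity and binding assays. Z'LYTE reactions such as CSF1R ran at apparent Km ATP, while the Adapta CAMK1 assay used ATP listed as 10. Values are given as percent.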

T1 sequence (Q13237 whole entry): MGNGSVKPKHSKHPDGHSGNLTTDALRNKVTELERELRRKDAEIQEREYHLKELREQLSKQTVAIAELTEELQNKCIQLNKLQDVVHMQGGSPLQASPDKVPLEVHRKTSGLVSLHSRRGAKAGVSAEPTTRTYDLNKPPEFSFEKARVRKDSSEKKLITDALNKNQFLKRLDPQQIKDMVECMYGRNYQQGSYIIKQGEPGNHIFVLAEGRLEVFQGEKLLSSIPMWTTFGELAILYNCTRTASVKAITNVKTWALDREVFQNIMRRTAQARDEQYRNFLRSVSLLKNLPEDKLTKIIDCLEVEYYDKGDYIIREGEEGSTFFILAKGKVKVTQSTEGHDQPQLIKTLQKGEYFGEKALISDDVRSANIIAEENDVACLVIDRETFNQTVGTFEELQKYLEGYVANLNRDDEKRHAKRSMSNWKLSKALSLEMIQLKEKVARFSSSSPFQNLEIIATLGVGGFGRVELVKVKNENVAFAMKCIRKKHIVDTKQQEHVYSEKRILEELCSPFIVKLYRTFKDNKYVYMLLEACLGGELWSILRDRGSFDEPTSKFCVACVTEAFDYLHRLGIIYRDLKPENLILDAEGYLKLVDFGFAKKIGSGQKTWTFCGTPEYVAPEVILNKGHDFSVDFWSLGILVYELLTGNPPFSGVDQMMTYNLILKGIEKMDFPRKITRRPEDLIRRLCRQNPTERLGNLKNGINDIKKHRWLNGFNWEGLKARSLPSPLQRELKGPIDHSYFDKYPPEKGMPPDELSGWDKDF

`CN(C(=O)CN1CCOCC1)c1ccc2sc3c(-c4cccc5c(=O)cc(N6CC7CCC(C6)O7)oc45)cccc3c2c1` [NU5455]: the inhibition (usually the relative decrease from the control value, in per cent) at 1 µM was -5.1%.
